In paper PMC6540285, “Evaluation of Protein Kinase Inhibitors with PLK4 Cross-Over Potential in a Pre-Clinical Model of Cancer” (International Journal of Molecular Sciences, 2019):

How the values were obtained:
[1] = molecular target: FYN (Homo sapiens, UniProt P06241); test: SelectScreen kinase profiling, ZLYTE; assay type: biochemical
[2] = molecular target: P450 2C9 (Homo sapiens, UniProt P11712); test: SelectScreen P450 Vivid biochemical assay; conditions: 10000nM; substrate BOMF
[3] = molecular target: CDK9 (Inactive) (Homo sapiens, UniProt P50750); test: SelectScreen kinase profiling, LanthaScreen binding
[4] = molecular target: CYP3A4 (Homo sapiens, UniProt P08684); test: SelectScreen P450 Vivid biochemical assay; conditions: 10000nM
[5] = molecular target: MAP3K8 (COT) (Homo sapiens, UniProt P41279); test: SelectScreen kinase profiling, ZLYTE; assay type: biochemical
[6] = molecular target: NUAK1 (ARK5) (Homo sapiens, UniProt O60285); test: SelectScreen kinase profiling, Adapta; assay type: biochemical
[7] = molecular target: LRRK2 FL (Homo sapiens, UniProt Q5S007); test: SelectScreen kinase profiling, Adapta; assay type: biochemical
[8] = molecular target: FLT4 (VEGFR3) (Homo sapiens, UniProt P35916); test: SelectScreen kinase profiling, ZLYTE; assay type: biochemical
[9] = molecular target: CDKL5 (Homo sapiens, UniProt O76039); test: SelectScreen kinase profiling, ZLYTE; assay type: biochemical; conditions: CDKL5, 10 µM
[10] = molecular target: KIT V560G (Homo sapiens, UniProt P10721, V560G); test: SelectScreen kinase profiling, ZLYTE; assay type: biochemical
[11] = molecular target: ABL1 M351T (Homo sapiens, UniProt P00519, M351T); test: SelectScreen kinase profiling, LanthaScreen binding
[12] = molecular target: NLK (Homo sapiens, UniProt Q9UBE8); test: as above
[13] = molecular target: SPHK1 (Homo sapiens, UniProt Q9NYA1); test: SelectScreen kinase profiling, Adapta; assay type: biochemical; conditions: SPHK1, 10 µM
[14] = molecular target: ABL1 Y253F (Homo sapiens, UniProt P00519, Y253F); test: SelectScreen kinase profiling, ZLYTE; assay type: biochemical
[15] = molecular target: MKNK1 (MNK1) (Homo sapiens, UniProt Q9BUB5); test: SelectScreen kinase profiling, ZLYTE; assay type: biochemical
[16] = molecular target: CSNK1A1 (CK1 alpha 1) (Homo sapiens, UniProt P48729); test: SelectScreen kinase profiling, ZLYTE; assay type: biochemical
[17] = molecular target: PRKCZ (PKC zeta) (Homo sapiens, UniProt Q05513); test: SelectScreen kinase profiling, ZLYTE; assay type: biochemical
[18] = molecular target: TEK (TIE2) Y1108F (Homo sapiens, UniProt Q02763, Y1108F); test: SelectScreen kinase profiling, LanthaScreen binding
[19] = molecular target: KIT D816V (Homo sapiens, UniProt P10721, D816V); test: as above
[20] = molecular target: PRKCB2 (PKC beta II) (Homo sapiens, UniProt P05771); test: SelectScreen kinase profiling, ZLYTE; assay type: biochemical
[21] = molecular target: PIP5K1C (Homo sapiens, UniProt O60331); test: SelectScreen kinase profiling, Adapta; assay type: biochemical
[22] = molecular target: P450 3A5 (Homo sapiens, UniProt P20815); test: SelectScreen P450 Vivid biochemical assay; conditions: 10000nM
[23] = molecular target: ALK (Homo sapiens, UniProt Q9UM73); test: SelectScreen kinase profiling, ZLYTE; assay type: biochemical
[24] = molecular target: EPHA1 (Homo sapiens, UniProt P21709); test: SelectScreen kinase profiling, ZLYTE; assay type: biochemical; conditions: EPHA1, 10 µM
[25] = molecular target: MAP4K4 (HGK) (Homo sapiens, UniProt O95819); test: SelectScreen kinase profiling, ZLYTE; assay type: biochemical
[26] = molecular target: MAP3K10 (MLK2) (Homo sapiens, UniProt Q02779); test: SelectScreen kinase profiling, LanthaScreen binding
[27] = molecular target: MAP2K1 (MEK1) (Homo sapiens, UniProt Q02750); test: SelectScreen kinase profiling, ZLYTE; assay type: biochemical
[28] = molecular target: AMPK A2/B1/G1 (Homo sapiens, UniProt P54646); test: SelectScreen kinase profiling, ZLYTE; assay type: biochemical; conditions: AMPK A2/B1/G1, 10 µM
[29] = molecular target: CYP2D6 (Homo sapiens, UniProt P10635)
[30] = molecular target: P450 2J2 (Homo sapiens, UniProt P51589)
[31] = molecular target: NEK2 (Homo sapiens, UniProt P51955); test: SelectScreen kinase profiling, ZLYTE; assay type: biochemical; conditions: NEK2, 10 µM
[32] = molecular target: FGFR3 V555M (Homo sapiens, UniProt P22607, V555M); test: SelectScreen kinase profiling, ZLYTE; assay type: biochemical
[33] = molecular target: IGF1R (Homo sapiens, UniProt P08069); test: SelectScreen kinase profiling, ZLYTE; assay type: biochemical
[34] = molecular target: LYN A (Homo sapiens, UniProt P07948); test: SelectScreen kinase profiling, ZLYTE; assay type: biochemical
[35] = molecular target: MUSK (Homo sapiens, UniProt O15146); test: SelectScreen kinase profiling, ZLYTE; assay type: biochemical
[36] = molecular target: RET V804E (Homo sapiens, UniProt P07949, V804E); test: SelectScreen kinase profiling, ZLYTE; assay type: biochemical
[37] = molecular target: KIT (Homo sapiens, UniProt P10721); test: SelectScreen kinase profiling, ZLYTE; assay type: biochemical
[38] = molecular target: MATK (HYL) (Homo sapiens, UniProt P42679); test: SelectScreen kinase profiling, ZLYTE; assay type: biochemical
[39] = molecular target: PRKX (Homo sapiens, UniProt P51817); test: SelectScreen kinase profiling, ZLYTE; assay type: biochemical
[40] = molecular target: CSNK1A1L (Homo sapiens, UniProt Q8N752); test: SelectScreen kinase profiling, ZLYTE; assay type: biochemical

Chain of P450 3A5 (P20815 whole entry): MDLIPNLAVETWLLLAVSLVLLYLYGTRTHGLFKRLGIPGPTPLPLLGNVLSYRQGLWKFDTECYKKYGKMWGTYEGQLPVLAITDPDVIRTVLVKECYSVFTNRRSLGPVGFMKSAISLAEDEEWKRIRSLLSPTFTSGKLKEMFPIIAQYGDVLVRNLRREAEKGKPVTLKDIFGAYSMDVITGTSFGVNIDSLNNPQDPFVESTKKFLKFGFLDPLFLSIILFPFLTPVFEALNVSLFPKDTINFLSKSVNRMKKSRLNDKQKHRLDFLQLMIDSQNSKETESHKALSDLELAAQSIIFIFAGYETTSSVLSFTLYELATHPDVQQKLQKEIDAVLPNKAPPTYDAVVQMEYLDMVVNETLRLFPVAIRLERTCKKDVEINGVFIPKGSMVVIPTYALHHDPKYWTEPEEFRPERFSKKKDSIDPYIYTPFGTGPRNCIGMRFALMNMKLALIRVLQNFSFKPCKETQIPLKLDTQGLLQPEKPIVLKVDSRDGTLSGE
Chain of CYP3A4 (P08684 whole entry): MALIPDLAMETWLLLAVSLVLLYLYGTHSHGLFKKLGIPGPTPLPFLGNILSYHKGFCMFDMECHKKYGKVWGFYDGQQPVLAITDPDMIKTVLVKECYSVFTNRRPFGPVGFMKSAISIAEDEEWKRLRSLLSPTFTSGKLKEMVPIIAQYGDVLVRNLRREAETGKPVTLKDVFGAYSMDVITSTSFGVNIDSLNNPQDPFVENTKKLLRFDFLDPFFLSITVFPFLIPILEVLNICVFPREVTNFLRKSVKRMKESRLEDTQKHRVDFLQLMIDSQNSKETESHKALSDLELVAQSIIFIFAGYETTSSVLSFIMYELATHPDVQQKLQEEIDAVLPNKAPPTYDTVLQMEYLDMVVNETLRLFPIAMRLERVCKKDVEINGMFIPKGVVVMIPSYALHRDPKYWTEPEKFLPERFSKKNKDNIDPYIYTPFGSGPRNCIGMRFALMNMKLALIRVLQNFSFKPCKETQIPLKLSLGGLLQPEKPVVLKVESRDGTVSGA
Chain of KIT V560G (P10721 26-976 V560G): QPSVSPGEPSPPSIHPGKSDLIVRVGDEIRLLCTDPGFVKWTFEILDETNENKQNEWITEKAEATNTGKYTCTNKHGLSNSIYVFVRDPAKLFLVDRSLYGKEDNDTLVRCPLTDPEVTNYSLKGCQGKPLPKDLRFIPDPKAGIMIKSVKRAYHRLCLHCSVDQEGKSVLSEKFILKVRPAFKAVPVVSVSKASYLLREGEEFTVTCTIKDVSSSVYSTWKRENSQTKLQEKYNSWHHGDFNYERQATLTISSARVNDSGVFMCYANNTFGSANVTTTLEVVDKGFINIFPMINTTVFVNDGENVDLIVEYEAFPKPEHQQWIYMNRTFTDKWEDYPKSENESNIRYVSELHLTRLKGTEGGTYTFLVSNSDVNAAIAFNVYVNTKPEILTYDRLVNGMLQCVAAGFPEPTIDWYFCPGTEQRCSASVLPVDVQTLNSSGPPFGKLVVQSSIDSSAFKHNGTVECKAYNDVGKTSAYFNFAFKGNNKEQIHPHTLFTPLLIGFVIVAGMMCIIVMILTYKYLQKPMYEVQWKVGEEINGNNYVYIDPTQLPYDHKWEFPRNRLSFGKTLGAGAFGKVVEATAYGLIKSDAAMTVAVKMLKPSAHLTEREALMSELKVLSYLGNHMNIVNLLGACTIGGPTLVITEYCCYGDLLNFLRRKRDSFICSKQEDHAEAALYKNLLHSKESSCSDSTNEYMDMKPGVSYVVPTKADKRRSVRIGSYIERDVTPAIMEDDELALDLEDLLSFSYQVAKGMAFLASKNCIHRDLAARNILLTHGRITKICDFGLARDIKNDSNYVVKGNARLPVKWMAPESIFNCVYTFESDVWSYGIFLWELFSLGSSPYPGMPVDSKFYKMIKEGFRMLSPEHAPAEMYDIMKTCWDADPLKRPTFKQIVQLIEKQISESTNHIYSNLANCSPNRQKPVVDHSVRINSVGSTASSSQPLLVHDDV
Chain of MAP4K4 (HGK) (O95819 whole entry): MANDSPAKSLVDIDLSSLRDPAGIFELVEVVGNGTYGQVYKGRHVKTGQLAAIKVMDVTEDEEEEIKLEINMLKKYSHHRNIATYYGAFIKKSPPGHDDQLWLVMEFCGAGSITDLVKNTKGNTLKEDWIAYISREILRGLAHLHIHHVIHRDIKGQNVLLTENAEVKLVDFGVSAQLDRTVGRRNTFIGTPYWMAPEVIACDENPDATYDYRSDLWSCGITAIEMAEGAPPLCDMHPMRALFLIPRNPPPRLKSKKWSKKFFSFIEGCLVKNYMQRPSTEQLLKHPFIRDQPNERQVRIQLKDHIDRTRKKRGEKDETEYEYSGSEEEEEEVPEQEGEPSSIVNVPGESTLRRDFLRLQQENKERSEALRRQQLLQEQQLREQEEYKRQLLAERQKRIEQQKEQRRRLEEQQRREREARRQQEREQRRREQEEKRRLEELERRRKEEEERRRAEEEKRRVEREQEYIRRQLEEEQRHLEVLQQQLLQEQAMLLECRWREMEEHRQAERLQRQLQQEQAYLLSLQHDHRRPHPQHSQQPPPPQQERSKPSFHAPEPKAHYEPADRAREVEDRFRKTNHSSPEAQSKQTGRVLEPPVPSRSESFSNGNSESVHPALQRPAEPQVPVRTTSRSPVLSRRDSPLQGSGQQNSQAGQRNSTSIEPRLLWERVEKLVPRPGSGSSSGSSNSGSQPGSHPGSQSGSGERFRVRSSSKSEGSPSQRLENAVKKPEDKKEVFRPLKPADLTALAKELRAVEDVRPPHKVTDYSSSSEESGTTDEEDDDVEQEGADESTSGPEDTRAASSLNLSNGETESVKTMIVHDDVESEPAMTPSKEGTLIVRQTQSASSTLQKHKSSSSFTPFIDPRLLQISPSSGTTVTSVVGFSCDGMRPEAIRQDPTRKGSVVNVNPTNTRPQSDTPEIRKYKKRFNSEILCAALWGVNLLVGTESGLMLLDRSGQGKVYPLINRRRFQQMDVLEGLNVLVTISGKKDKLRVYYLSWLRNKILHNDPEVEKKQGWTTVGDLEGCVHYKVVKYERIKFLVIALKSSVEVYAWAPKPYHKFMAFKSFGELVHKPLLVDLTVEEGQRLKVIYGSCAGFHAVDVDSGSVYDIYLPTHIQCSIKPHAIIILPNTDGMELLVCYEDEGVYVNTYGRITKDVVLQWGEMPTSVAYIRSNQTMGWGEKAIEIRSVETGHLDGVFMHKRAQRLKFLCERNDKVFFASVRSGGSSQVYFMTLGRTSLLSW
Chain of IGF1R (P08069 31-1367): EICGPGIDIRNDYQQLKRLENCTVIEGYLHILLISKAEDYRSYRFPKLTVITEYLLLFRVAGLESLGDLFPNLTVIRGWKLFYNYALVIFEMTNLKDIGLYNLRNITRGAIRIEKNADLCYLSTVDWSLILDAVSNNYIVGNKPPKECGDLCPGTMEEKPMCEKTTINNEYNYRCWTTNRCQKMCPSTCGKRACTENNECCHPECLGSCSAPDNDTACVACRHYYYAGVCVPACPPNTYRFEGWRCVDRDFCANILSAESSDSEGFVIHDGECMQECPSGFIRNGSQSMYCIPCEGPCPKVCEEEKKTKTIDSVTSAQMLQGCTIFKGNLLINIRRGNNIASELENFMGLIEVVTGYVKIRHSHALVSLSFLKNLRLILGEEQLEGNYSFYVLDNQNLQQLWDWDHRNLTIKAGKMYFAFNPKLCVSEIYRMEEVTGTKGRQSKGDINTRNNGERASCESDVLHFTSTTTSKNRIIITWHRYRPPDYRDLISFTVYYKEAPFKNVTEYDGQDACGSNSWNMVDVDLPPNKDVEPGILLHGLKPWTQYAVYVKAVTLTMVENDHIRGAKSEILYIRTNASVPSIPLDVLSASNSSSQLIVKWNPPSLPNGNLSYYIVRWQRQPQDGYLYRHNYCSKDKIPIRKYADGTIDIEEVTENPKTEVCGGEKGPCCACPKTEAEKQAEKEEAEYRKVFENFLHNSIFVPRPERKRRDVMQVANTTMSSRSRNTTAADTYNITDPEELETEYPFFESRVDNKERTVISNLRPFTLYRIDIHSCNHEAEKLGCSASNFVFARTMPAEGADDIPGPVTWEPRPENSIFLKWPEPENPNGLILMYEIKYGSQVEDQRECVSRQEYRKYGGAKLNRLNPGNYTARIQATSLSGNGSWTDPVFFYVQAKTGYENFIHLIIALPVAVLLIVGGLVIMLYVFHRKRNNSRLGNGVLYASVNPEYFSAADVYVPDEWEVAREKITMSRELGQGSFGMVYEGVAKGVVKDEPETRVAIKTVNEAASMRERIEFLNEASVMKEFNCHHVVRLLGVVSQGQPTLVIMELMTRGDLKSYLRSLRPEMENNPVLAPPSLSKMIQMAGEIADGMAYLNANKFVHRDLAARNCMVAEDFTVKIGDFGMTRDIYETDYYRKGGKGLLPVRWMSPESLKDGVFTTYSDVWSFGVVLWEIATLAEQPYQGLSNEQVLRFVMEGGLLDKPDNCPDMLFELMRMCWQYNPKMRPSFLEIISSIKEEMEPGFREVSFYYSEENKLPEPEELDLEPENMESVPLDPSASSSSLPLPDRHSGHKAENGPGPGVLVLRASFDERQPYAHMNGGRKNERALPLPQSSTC
Chain of P450 2J2 (P51589 whole entry): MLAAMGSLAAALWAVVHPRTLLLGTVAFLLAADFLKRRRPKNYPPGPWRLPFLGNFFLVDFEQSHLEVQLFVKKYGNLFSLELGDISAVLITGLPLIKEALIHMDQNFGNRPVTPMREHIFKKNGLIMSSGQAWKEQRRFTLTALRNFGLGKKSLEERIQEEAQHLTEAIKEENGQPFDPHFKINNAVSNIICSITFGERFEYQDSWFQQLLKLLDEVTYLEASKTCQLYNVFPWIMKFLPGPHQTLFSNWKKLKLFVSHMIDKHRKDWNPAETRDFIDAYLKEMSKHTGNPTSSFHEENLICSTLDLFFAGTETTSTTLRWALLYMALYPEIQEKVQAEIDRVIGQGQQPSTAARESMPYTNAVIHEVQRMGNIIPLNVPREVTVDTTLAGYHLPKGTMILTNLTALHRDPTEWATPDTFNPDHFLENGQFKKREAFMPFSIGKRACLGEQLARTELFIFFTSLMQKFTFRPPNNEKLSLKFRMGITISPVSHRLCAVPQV
Chain of KIT (P10721 26-976): as the sequence (P10721 26-976 V560G) above, with G535V counted along it

With `O=C(c1ccc(/C=C/c2n[nH]c3ccccc23)cc1)N1CCNCC1` [KW-2449] the inhibition at 10 µM [1] was 94%, the “% Inhibition 2C9 BOMF” value [2] was -2% and the inhibition at 10 µM [3] was 2%. For the same molecule, the “% Inhibition 3A4 BOMCC” value ([4]; substrate BOMCC) was 63%, the “% Inhibition 3A4 DBOMF” value ([4]; substrate DBOMF) was 46% and the inhibition at 10 µM [5] was 54%. The inhibition at 10 µM [6] was 100%, the inhibition at 10 µM [7] was 100% and the inhibition at 10 µM [8] was 95%. It also gave an inhibition at 10 µM [9] of 56%, an inhibition at 10 µM [10] of 84% and an inhibition at 10 µM [11] of 52%. For the same molecule, the inhibition at 10 µM [12] was -2%, the inhibition at 10 µM [13] was 17% and the inhibition at 10 µM [14] was 100%. It also gave an inhibition at 10 µM [15] of 52%, an inhibition at 10 µM [16] of 33% and an inhibition at 10 µM [17] of 9%. It also gave an inhibition at 10 µM [18] of 72%, an inhibition at 10 µM [19] of 40% and an inhibition at 10 µM [20] of 71%. For the same molecule, the inhibition at 10 µM [21] was 7%, the “% Inhibition 3A5 BOMCC” value ([22]; substrate BOMCC) was 14% and the “% Inhibition 3A5 DBOMF” value ([22]; substrate DBOMF) was 10%. For the same molecule, the inhibition at 10 µM [23] was 101%, the inhibition at 10 µM [24] was 99% and the inhibition at 10 µM [25] was 98%. The inhibition at 10 µM [26] was 87%, the inhibition at 10 µM [27] was 72% and the inhibition at 10 µM [28] was 99%. It also gave an IC50 [29] greater than 10000 nM, an IC50 [30] of 249 nM and an inhibition at 10 µM [31] of 47%. It also gave an inhibition at 10 µM [32] of 100%, an inhibition at 10 µM [33] of 95% and an inhibition at 10 µM [34] of 89%. It also gave an inhibition at 10 µM [35] of 90%, an inhibition at 10 µM [36] of 94% and an inhibition at 10 µM [37] of 91%. The inhibition at 10 µM [38] was 37%, the inhibition at 10 µM [39] was 96% and the inhibition at 10 µM [40] was 20%.
